The values that follow come from PMC12087607 (Drug Design, Development and Therapy, 2025).

The test system of data set [1] is male Wistar rats. As to the kind of experiment: In vivo toxicity study: daily inspection and body weight. The settings on record: daily inspection, body weight twice weekly, 6 weeks.
In a further data set the test system is α-SMA. As to the kind of experiment: Immunohistochemical staining of α-SMA in CCl4-induced liver fibrosis. The settings on record: CCl4 6 weeks, then 6-week treatment 20 mg/kg/day; vs model group. Type of data set: in vivo, rat.
Data set [2] relates to rats with CCl4-induced liver fibrosis. As to the kind of experiment: Liver histology. Type of data set: in vivo, rat. The settings on record: CCl4 6 weeks, then 6-week treatment 20 mg/kg/day.
Data set [3] has as its system male Wistar rats. The data set is described as follows: In vivo toxicity study: hepatic and renal serum biomarkers. The settings on record: in vivo toxicity study groups, 6 weeks, mean ± SEM, n = 5.
The subject of the next data set is MDA. The data set is described as follows: Lipid peroxides. It is filed as in vivo, rat. The settings on record: liver homogenates; CCl4 6 weeks, then 6-week treatment 20 mg/kg/day.
The test system of another data set is TGF-β1. The data set is described as follows: Hepatic TGF-β1 mRNA expression. It is filed as in vivo, rat. The settings on record: CCl4 6 weeks, then 6-week treatment 20 mg/kg/day; vs model group.
The subject of a further data set is rat livers. It is filed as in vivo. The settings on record: toxicity groups.
Another data set concerns GSH. The data set is described as follows: Reduced glutathione. Type of data set: in vivo, rat. The settings on record: liver homogenates; CCl4 6 weeks, then 6-week treatment 20 mg/kg/day.
The subject of a further data set is TIMP-1. The data set is described as follows: Hepatic TIMP-1 protein levels. Type of data set: in vivo, rat. The settings on record: tissue homogenates; CCl4 6 weeks, then 6-week treatment 20 mg/kg/day.
A further data set has as its system MMP-9. The data set is described as follows: Hepatic MMP-9 mRNA expression. Type of data set: in vivo, rat. The settings on record: CCl4 6 weeks, then 6-week treatment 20 mg/kg/day.
The subject of a further data set is TNF-α. As to the kind of experiment: Liver TNF-α content. It is filed as in vivo, rat. The settings on record: liver homogenates; CCl4 6 weeks, then 6-week treatment 20 mg/kg/day.
Data set [4] relates to rats with CCl4-induced liver fibrosis. The data set is described as follows: Serum liver biomarkers in CCl4-induced liver fibrosis. It is filed as in vivo, rat. The settings on record: CCl4 6 weeks, then 6-week treatment 20 mg/kg/day.

Molecules are shown by their SMILES.

For the compound `Cc1ccc(-c2cc(C(F)(F)F)nn2-c2ccc(S(N)(=O)=O)cc2)cc1` [celecoxib], the “Signs of stress, toxicity or weight loss” value in the data set on male Wistar rats [1] is on record as “did not show any signs of stress, toxicity or weight loss”. For the same compound, the “α-SMA % change (in words)” value in the data set on α-SMA is given as “significant decline of the α-SMA %”. Also, in data set [2], the “Liver architecture (H&E)” value is reported as “evident fibrolytic effects”. Further, in [2] (Masson's trichrome), the “Fibrosis score (0–4)” value is “significant decrease in fibrosis scores”. Besides, in the data set with male Wistar rats [3], the ALP was 123 ± 6.59 U/L, the ALT came out at 45.66 ± 0.88 U/L, the AST is 127.5 ± 14 U/L and the Albumin is recorded as 3.68 ± 0.04 g/dL. In the data set with male Wistar rats [3], the Creatinine is 0.43 ± 0.06 mg/dL and the “Total Bilirubin” value was 0.045 ± 0.006 mg/dL. Besides, the “MDA content (lipid peroxides)” value in the data set with MDA is reported as “significant lowering effect on MDA levels”. For the same compound, in the data set on TGF-β1, the “Hepatic TGF-β1 mRNA expression” value is “significant reduction in the expression of TGF- β1”. Also, in the data set with rat livers, the “Gross examination of rat livers” value is listed as “normal smooth livers with no inflammation or fatty depositions”. In the data set with GSH, the GSH content result is recorded as “significant rise in GSH levels”. In addition, in the data set on TIMP-1, the “Hepatic TIMP-1 protein levels” value was “caused a decrease in TIMP-1 levels”. Further, the “Hepatic MMP-9 mRNA expression” value in the data set on MMP-9 was “reversed that upregulation”. The “Liver TNF-α content” value in the data set with TNF-α is on record as “significantly superior effect in lowering TNF-α levels”. The “Serum ALP levels” value in data set [4] (normal range 30 to 130 U/L) was “lied within the normal range”. In data set [4] (vs model group), the “Serum AST and ALT levels” value was “significant reduction in liver enzyme levels”; the “Total serum bilirubin (TBIL) levels” value is reported as “significant decrease in the total serum bilirubin levels”.
